Results taken from US20120202819A1, “COMBINATION THERAPY USING A BETA 3 […] RECEPTOR AGONISTS AND AN […] AGENT” (Merck Sharp & Dohme Corporation, priority 2009, published 2012).
Like-named read-outs stand apart in the source and are kept apart here.

Columns and labels:
[1] = target: T1, human β3 adrenergic receptor (Homo sapiens, UniProt P13945); experiment: Functional assay: cAMP production in CHO cells transfected with cloned β-adrenergic receptor; format: cell-based
T1 construct: expressed in transfected cells; host or cells: Chinese hamster ovary (CHO) cells, stably transfected
T1 sequence (P13945 whole entry): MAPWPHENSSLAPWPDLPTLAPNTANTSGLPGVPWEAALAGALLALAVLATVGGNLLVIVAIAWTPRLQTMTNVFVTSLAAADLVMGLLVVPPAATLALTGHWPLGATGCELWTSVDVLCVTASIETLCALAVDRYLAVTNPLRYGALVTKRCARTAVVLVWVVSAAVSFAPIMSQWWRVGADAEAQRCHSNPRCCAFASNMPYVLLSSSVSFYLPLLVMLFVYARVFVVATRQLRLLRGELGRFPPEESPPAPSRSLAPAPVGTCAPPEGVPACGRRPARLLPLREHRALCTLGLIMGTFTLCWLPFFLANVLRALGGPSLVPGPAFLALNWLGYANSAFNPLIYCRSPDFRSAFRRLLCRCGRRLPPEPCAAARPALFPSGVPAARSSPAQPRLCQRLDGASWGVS
Description: Biological Assays for β3 Functional Activities: The following in vitro assays are suitable for screening compounds that have selective β3 agonist activity:
Functional Assay: cAMP production in response to ligand is measured according to Barton, et al. (1991, Agonist-induced desensitization of D2 dopamine receptors in human Y-79 retinoblastoma cells. Mol. Pharmacol. […]) modified as follows. cAMP production is measured using a homogenous time-resolved fluorescence resonance energy transfer immunoassay (LANCE™, Perkin Elmer) according to the manufacture's instructions. Chinese hamster ovary (CHO) cells, stably transfected with the cloned 13-adrenergic receptor (β1, β2 or β3) are harvested after 3 days of subculturing. Harvesting of cells is done with Enzyme-free Dissociation Media (Specialty Media). Cells are then counted and resuspended in assay buffer (Hank's Balanced salt solution supplemented with 5 mM HEPES, 0.1% BSA) containing a phosphodiesterase inhibitor (IBMX, 0.6 mM). The reaction is initiated by mixing 6,000 cells in 6 with 6 μL Alexa Fluor labeled cAMP antibody (LANCE™ kit) which is then added to an assay well containing 12 μL of compound (diluted in assay buffer to 2× final concentration). The reaction proceeds for 30 min at room temperature and is terminated by the addition of 24 detection buffer (LANCE™ kit). The assay plate is then incubated for 1 h at room temperature and time-resolved fluorescence measured on a Perkin Elmer Envision reader or equivalent. The unknown cAMP level is determined by comparing fluorescence levels to a cAMP standard curve.
The non-selective, full agonist 13-adrenergic ligand isoproterenol is used at all three receptors to determine maximal stimulation. The human β3 adrenergic receptor (AR) selective ligand (S)-N-[4-[2-[[2-hydroxy-3-(4-hydroxyphenoxy)propyl]amino]ethyl]-phenyl]-4-iodobenzenesulfonamide is used as a control in all assays. […] Data are analyzed using Microsoft Excel and Graphpad Prism or an internally developed data analysis software package.

[2] = test system: EFS-induced isolated detrusor muscle contractions; experiment: EFS-induced contraction of isolated rat detrusor muscle strips, with isobologram analysis; design: species or system Sprague-Dawley rats
Description: Male adult Sprague-Dawley rats were used. After euthanizing using CO2 gas, a whole bladder was removed. Longitudinal strips (about 6 mm×3 mm) of the extratrigonal portion of the detrusor muscle were prepared. […] The strips were tied at one end to the organ bath, and connected at the other end to an isometric transducer (AD Instruments) under a resting tension of 10 mN. The responses of the preparations were recorded at a sampling rate of 10 Hz by a multiple channel data acquisition system (PowerLab, AD Instruments), and measured with an analysis software (Chart, AD Instruments). After the equilibration period for at least 60 min, each tissue strip was challenged to electrical field stimulation (EFS) at 60 Hz; duration, 0.3 ms; 3 sec; 90 V to induce contractions. Upon obtaining stable contractions with EFS, compound solution (25 μL) was applied into organ bath in a cumulative manner. After 15 min of each compound treatment, EFS was applied.
Isobologram Analysis was used to evaluate the synergic effect of a combination therapy. Isobologram Analysis provides a visual assessment of the interaction of two different agents using independent statistical analysis. The statistical analysis can be accomplished from calculations of certain potency indices from single treatment of each compound and fixed-ratio combinations for the same effect.
Isobologram for some particular effect (e.g., 50% of the maximum) in which the dose of active agent A alone is A=20 and active agent B alone is B=100. The straight line connecting these intercept points (additivity line) is the locus of all dose pairs that, based on these potencies, should give the same effect, An actual dose pair such as point Q attains this effect with lesser quantities and is synergistic (or super-additive), while the dose pair denoted by point R means greater quantities are required and is therefore sub-additive.

bladder capacity = experiment: Bladder capacity (cystometry) in anesthetized rhesus monkeys; format: in vivo, rhesus monkeys (Macaca mulatta); details: mean of 4-6 animals
Text: Adult female rhesus monkeys (Macaca mulatta) weighed 5.3-6.2 kg (4-7 year-old) were used. The subjects were either paired or individually housed on a 12-h light/12-h dark cycle (lights on at 7:00 AM). Their diet consisted of 2050 Teklad (Harlan Laboratories, Indianapolis, Ind.) and fresh fruit or vegetable. Water was freely available. All animals were observed daily by a veterinary technician and caretakers for signs of ill health. Subjects were repeatedly used with >13-day resting period. Monkeys were anesthetized with an intramuscular injection of either Telazol (3-5 mg/kg) or ketamine (10-20 mg/kg) followed by intravenous constant rate infusion with ketamine (0.2-0,8 mg/kg/min) using a syringe pump (552222, Harvard Apparatus, Holliston, Mass.). Animals were placed in a supine position and a triple lumen balloon transurethral catheter (7.4 Fr, Cook Medical, Bloomington, Ind.) was inserted into the bladder and the balloon was inflated with 1 mL of water to secure the tip of catheter at the bladder base. The catheter was connected with an infusion pump (Gemini PC-2TX, ALARIS Medical Systems, San Diego, Calif.) for bladder filling and a pressure transducer for intravesical pressure monitoring. Intravesical pressure was continuously recorded using a multiple channel data acquisition system (Power lab, AD Instruments, Biopac systems, Colorado Springs, Colo.) at a sampling rate of 20 Hz. After confirming bladder emptiness by an ultrasonography (Logiq e vet, GE Medical Systems, Waukesha, Wis., FIG. 1A), saline was intravesically infused at 15 mL/min. When the steep rise in pressure indicative of the micturition reflex was observed, intravesical infusion was stopped and the bladder was manually emptied with a 60 ml syringe.
After two baseline cystometry readings, drug was intravenously administered three times using a rising dose paradigm with a cystometry performed 10 min after each dose. Bladder capacity was measured for each cystometry and % change from the baseline capacity was calculated. As used herein, the term “baseline capacity” or “baseline” means the average bladder capacity from two pre-dose measurements.
The reported results are mean values of % change from baseline in 4-6 animals.

muscarinic receptor M4 = target: T2, muscarinic receptor M4 (Homo sapiens, UniProt P08173); details: Ohtake et al.; cited from earlier work
T2 sequence (P08173 1-479): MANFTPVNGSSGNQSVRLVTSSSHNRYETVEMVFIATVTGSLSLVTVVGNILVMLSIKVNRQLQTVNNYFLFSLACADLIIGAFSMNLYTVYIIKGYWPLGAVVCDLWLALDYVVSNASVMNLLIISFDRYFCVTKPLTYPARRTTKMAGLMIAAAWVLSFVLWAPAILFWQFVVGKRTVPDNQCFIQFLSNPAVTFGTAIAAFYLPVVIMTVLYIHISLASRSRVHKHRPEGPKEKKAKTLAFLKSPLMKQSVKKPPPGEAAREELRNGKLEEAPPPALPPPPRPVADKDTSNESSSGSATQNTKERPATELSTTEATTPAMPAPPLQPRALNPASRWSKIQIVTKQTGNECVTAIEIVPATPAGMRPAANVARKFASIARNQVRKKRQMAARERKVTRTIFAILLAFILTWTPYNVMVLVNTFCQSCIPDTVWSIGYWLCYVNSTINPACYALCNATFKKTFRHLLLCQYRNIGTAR

[3] = cAMP, CHO cells, read-out: human β3 functional activity
[4] = human β3 functional activity, read-out: HUMAN β3 BINDING

In the case of `Nc1nc(CC(=O)Nc2ccc(CC3CC[C@H]([C@H](O)c4ccccc4)N3)cc2)cs1` (stereo partly drawn) [Compound 1, 2-(2-Amino-1,3-thiazol-4-yl)-N-[4-({(5R)-[(R)-hydroxy(phenyl)methyl]pyrrolidinyl}methyl)phenyl]acetamide], the EC50 [1, 3] is reported as 1 to 10 nM.
Work on `Nc1nc(CC(=O)Nc2ccc(C[C@@H]3CC[C@H]([C@H](O)c4ccccc4)N3)cc2)cs1` [Compound 2, 2-(2-Amino-1,3-thiazol-4-yl)-N-[4-({(2S, 5R)-[(R)-hydroxy(phenyl)methyl]pyrrolidinyl}methyl)phenyl]acetamide] yielded an EC50 [1, 3] of 1 to 10 nM.
For `Nc1nc2c(s1)CCC2C(=O)Nc1ccc(C[C@@H]2CC[C@H]([C@H](O)c3ccccc3)N2)cc1` (stereo partly drawn) [Compound 3], the EC50 [1, 3] was under 1 nM.
Work on `O=C(Cn1cnc2ccccc2c1=O)Nc1ccc(C[C@@H]2CC[C@H]([C@H](O)c3ccccc3)N2)cc1` [Compound 4] yielded an EC50 [1, 4] of 1 to 10 nM.
In the case of `O=C(Cn1ncccc1=O)Nc1ccc(C[C@@H]2CC[C@H]([C@H](O)c3ccccc3)N2)cc1` [Compound 5], the EC50 [1, 4] is reported as 1 to 10 nM.
In the case of `Cc1cnn(CC(=O)Nc2ccc(C[C@@H]3CC[C@H]([C@H](O)c4ccccc4)N3)cc2)c(=O)c1` [Compound 6], the EC50 [1, 4] is reported as 1 to 10 nM.
`O=C(Cn1ncc2ccccc2c1=O)Nc1ccc(C[C@@H]2CC[C@H]([C@H](O)c3ccccc3)N2)cc1` [Compound 7] showed an EC50 [1, 4] of 1 to 10 nM.
Work on `O=C(Cn1cccnc1=O)Nc1ccc(C[C@@H]2CC[C@H]([C@H](O)c3ccccc3)N2)cc1` [Compound 8] yielded an EC50 [1, 4] of 1 to 10 nM.
`O=C(Cn1cnccc1=O)Nc1ccc(C[C@@H]2CC[C@H]([C@H](O)c3ccccc3)N2)cc1` [Compound 9] gave an EC50 [1, 4] of 1 to 10 nM.
For `O=C(Cn1ccccc1=O)Nc1ccc(C[C@@H]2CC[C@H]([C@H](O)c3ccccc3)N2)cc1` [Compound 10], the EC50 [1, 4] was 1 to 10 nM.
`Cc1ncn(C(C)C(=O)Nc2ccc(C[C@@H]3CC[C@H]([C@H](O)c4ccccc4)N3)cc2)n1` (stereo partly drawn) [Compound 11] showed an EC50 [1, 3] of 1 to 10 nM.
In the case of `O=C(Nc1ccc(C[C@@H]2CC[C@H]([C@H](O)c3ccccc3)N2)cc1)[C@@H]1CCc2cccc(=O)n21` [Compound 12, (3S)-N-[4-({(2S,5R)-5-[(R)-hydroxy(phenyl)methyl]pyrrolidin-2-yl}methyl)phenyl]-5-oxo-1,2,3,5-tetrahydroindolizine-3-carboxamide], the EC50 [1, 3] is reported as 1 to 10 nM, the “times less potent than CL316243 (IC25)” value ([2]; inhibiting EFS-induced contraction of rat bladder strips) is reported as about 100 times and the “IC25 (concentration which induced 25% inhibition of detrusor contraction)” value ([2]; single compound, rat bladder strips, EFS) is reported as 275 nM.
With `O=C(Nc1ccc(C[C@@H]2CC[C@H]([C@H](O)c3ccccc3)N2)cc1)[C@H]1CCc2cccc(=O)n21` [Compound 13, (3R)-N-[4-({(2S,5R)-5-[(R)-hydroxy(phenyl)methyl]pyrrolidin-2-yl}methyl)phenyl]-5-oxo-1,2,3,5-tetrahydroindolizine-3-carboxamide] the EC50 [1, 3] was under 1 nM.
In the case of `O=C(Nc1ccc(C[C@@H]2CC[C@H]([C@H](O)c3ccccc3)N2)cc1)[C@@H]1CCc2nccc(=O)n21` [Compound 14, (6S)-N-[4-({(2S, 5R)-5-[(R)-hydroxy(phenyl)methyl]pyrrolidin-2-yl}methyl)phenyl]-4-oxo-4,6,7,8-tetrahydropyrrolo[1,2-α]pyrimidine-6-carboxamide], the EC50 [1, 3] is reported as 11 to 100 nM, the “Bladder capacity, % change from baseline” value (bladder capacity; mono-therapy 0.003 mg/kg iv) is reported as 4.1% and the “Bladder capacity, % change from baseline” value (bladder capacity; mono-therapy 0.003 mg/kg iv, listed as Cpd 14) is reported as 4.1%. For the same compound, the “Bladder capacity, % change from baseline” value (bladder capacity; mono-therapy 0.01 mg/kg iv) was 18.0%, the “Bladder capacity, % change from baseline” value (bladder capacity; mono-therapy 0.03 mg/kg iv) was 27.3% and the “Bladder capacity, % change from baseline” value (bladder capacity; mono-therapy 0.1 mg/kg iv) was 33.9%. The “Bladder capacity, % change from baseline” value (bladder capacity; mono-therapy 0.3 mg/kg iv) was 31% and the “Bladder capacity, % change from baseline” value (bladder capacity; mono-therapy 1 mg/kg iv) was 55.9%.
In the case of `NC(=O)C(c1ccccc1)(c1ccccc1)[C@@H]1CCN(CCc2ccc3c(c2)CCO3)C1` [Darifenacin, (S)-2-[1-[2-(2,3-dihydrobenzofuran-5-yl)ethyl]pyrrolidin-3-yl]-2,2-diphenyl-acetamide], the “Bladder capacity, % change from baseline” value (bladder capacity; mono-therapy 0.01 mg/kg iv) is reported as 8.9%, the “Bladder capacity, % change from baseline” value (bladder capacity; mono-therapy 0.03 mg/kg iv) is reported as 18.3% and the “Bladder capacity, % change from baseline” value (bladder capacity; mono-therapy 0.1 mg/kg iv) is reported as 29.4%. The Ki (muscarinic receptor M4) was 52 ± 15 nM.
